The source of these data is ChEMBL document CHEMBL1141688, “Design, synthesis and preliminary biological evaluation of new hydroxamate histone deacetylase inhibitors as potential antileukemic agents” (Bioorg Med Chem Lett, 2008).

The test system of assay [1] is NB-4. Briefly: Antiproliferative activity against human NB4 cells after 48 hrs. It is filed as functional, cell-based. The settings on record: NB-4, 48 h.
The subject of assay [2] is NB-4. The assay can be described thus: Induction of apoptosis in human NB4 cells assessed as viable cells at 5 uM after 48 hrs using annexin V-fluos/propidium iodide staining by cytofluorimetric analysis. It counts as functional. Conditions: NB-4, 48 h, read-out: Activity.
Assay [3] deals with NB-4. Briefly: Induction of apoptosis in human NB4 cells assessed as late apoptotic cells at 5 uM after 48 hrs using annexin V-fluos/propidium iodide staining by cytofluorimetric analysis. It is filed as functional.
The subject of assay [4] is NB-4. The assay can be described thus: Induction of apoptosis in human NB4 cells assessed as early apoptotic cells at 5 uM after 48 hrs using annexin V-fluos/propidium iodide staining by cytofluorimetric analysis. It counts as functional.
The subject of assay [5] is NB-4. Briefly: Induction of apoptosis in human NB4 cells assessed as necrotic cells at 5 uM after 48 hrs using annexin V-fluos/propidium iodide staining by cytofluorimetric analysis. It is filed as functional.
In assay [6] the test system is NB-4. Briefly: Induction of apoptosis in human NB4 cells assessed as necrotic cells at 2.5 uM after 48 hrs using annexin V-fluos/propidium iodide staining by cytofluorimetric analysis. It is filed as functional.
For assay [7], the system named is NB-4. The assay can be described thus: Induction of apoptosis in human NB4 cells assessed as viable cells at 2.5 uM after 48 hrs using annexin V-fluos/propidium iodide staining by cytofluorimetric analysis. It is filed as functional. The settings on record: NB-4, 48 h, read-out: Activity.
In assay [8] the test system is NB-4. Briefly: Induction of apoptosis in human NB4 cells assessed as early apoptotic cells at 2.5 uM after 48 hrs using annexin V-fluos/propidium iodide staining by cytofluorimetric analysis. It is filed as functional.
Assay [9] relates to NB-4. Briefly: Induction of apoptosis in human NB4 cells assessed as late apoptotic cells at 2.5 uM after 48 hrs using annexin V-fluos/propidium iodide staining by cytofluorimetric analysis. It counts as functional.

A word on the IC50: it is the concentration that gives 50% inhibition. Read a low IC50 as greater potency. `CN1C(=O)CN=C(c2ccccc2)c2cc(NC(=O)CCCCCCC(=O)NO)ccc21` registered a 50% inhibitory concentration (IC50) in the assay with NB-4 [1] of 2.5 µM.
Take `CC1N=C(c2ccccc2)c2cc(C#CCCCC(=O)NO)ccc2N(C)C1=O` (racemic): the viability at 5 µM in the assay with NB-4 [2] was determined as 8.6%. Moreover, the Activity in the assay with NB-4 [3] is 54.1%; with NB-4 [4] it was 35.6%; in the assay with NB-4 [5], 1.7%. The molecule also returned an IC50 with NB-4 [1] of 1.26 µM.
Turning to `C[C@@H]1N=C(c2ccccc2)c2cc(C#CCCCC(=O)NO)ccc2N(C)C1=O`, the Activity turned out to be 0.6% with NB-4 [6], 30.8% with NB-4 [8] and 56.6% in the assay with NB-4 [9]. For the same molecule, the viability at 2.5 µM in the assay with NB-4 [7] was 12%. The molecule also came in with an IC50 in the assay on NB-4 [1] of 0.61 µM.
As to `CC1N=C(c2ccccc2)c2cc(NC(=O)CCCCCCC(=O)NO)ccc2N(C)C1=O` (racemic), half-maximal inhibition with NB-4 [1] (IC50) was put at 4.09 µM.
Molecule `CN1C(=O)CN=C(c2ccccc2)c2cc(C#CCCCC(=O)NO)ccc21` gave a half-maximal inhibitory concentration (IC50) in the assay with NB-4 [1] of 0.62 µM.
As for `C[C@H]1N=C(c2ccccc2)c2cc(C#CCCCC(=O)NO)ccc2N(C)C1=O`, the Activity is listed as 0.4% in the assay on NB-4 [6], 1.5% with NB-4 [8] and 8.3% with NB-4 [9]. Also, the viability at 2.5 µM in the assay with NB-4 [7] was 89.8%. In the assay with NB-4 [1], this molecule showed a half-inhibitory concentration (IC50) of 4.8 µM.
Molecule `C[C@@H]1N=C(c2ccccc2)c2cc(NC(=O)CCCCCCC(=O)NO)ccc2N(C)C1=O` returned an IC50 in the assay with NB-4 [1] of 5.83 µM. This counts as single-digit micromolar.
The same measure, in the same setting: for `C[C@H]1N=C(c2ccccc2)c2cc(NC(=O)CCCCCCC(=O)NO)ccc2N(C)C1=O` the value was 3.71 µM.
